Experimental data published in patent US20240148821A1, “PHARMACEUTICAL USE OF CYCLIC PEPTIDE COMPOUND” (CHUGAI SEIYAKU KABUSHIKI KAISHA, priority 2021, published 2024).
Numbered stars: 1 amine (or outer) side, 2 acyl side, 3 side chain; on linkers, the order of the positions; unused ones are H or OH. Bridge positions count the residues as written; N and C are the ends. Square brackets hold non-standard residues; d marks the D form. Peptide text beside a SMILES is read from it. * marks the point of attachment. hPhe(3-Cl-4-CF3) = N[C@@H](CCc1ccc(C(F)(F)F)c(Cl)c1)C(=O)O; hPhe(3-F,4-CF3) = N[C@@H](CCc1ccc(C(F)(F)F)c(F)c1)C(=O)O; X21 = O=C([C@H](CCc1ccc(OC(F)(F)F)c(F)c1)N[*:1])[*:2]; hPhe(4-CF3) = N[C@@H](CCc1ccc(C(F)(F)F)cc1)C(=O)O; NMePhe(4-Cl) = CN[C@@H](Cc1ccc(Cl)cc1)C(=O)O; NMePhe(4-Me) = CN[C@@H](Cc1ccc(C)cc1)C(=O)O; X116 = O=C([C@H](CCc1cccc(F)c1)N[*:1])[*:2]; NMeGly(cPent) = CN[C@H](C(=O)O)C1CCCC1; Phe(3-I) = N[C@@H](Cc1cccc(I)c1)C(=O)O; NMeCha = CN[C@@H](CC1CCCCC1)C(=O)O; NMeChg = CN[C@H](C(=O)O)C1CCCCC1; NMeF = CN[C@@H](Cc1ccccc1)C(=O)O; NMeI = CC[C@H](C)[C@H](NC)C(=O)O; d(β3hL) = CC(C)C[C@@H](N)CC(=O)O; N(CH2CH2)2CF2 = FC1(F)CCN(*)CC1; NMeD = CN[C@@H](CC(=O)O)C(=O)O; NMeL = CN[C@@H](CC(C)C)C(=O)O; Chg = N[C@H](C(=O)O)C1CCCCC1; NMePra = C#CC[C@H](NC)C(=O)O; NMeNva = CCC[C@H](NC)C(=O)O; NMeV = CN[C@H](C(=O)O)C(C)C; d(β3hA) = C[C@@H](N)CC(=O)O; NMeS = CN[C@@H](CO)C(=O)O; Morpholide = C1CN(*)CCO1; NMeA = CN[C@@H](C)C(=O)O; Piperidide = C1CCN(*)CC1; Ac5c = NC1(C(=O)O)CCCC1; Aze = O=C(O)[C@@H]1CCN1; NBuGly = CCCCNCC(=O)O; Aib = CC(C)(N)C(=O)O; Sar = CNCC(=O)O; Propyl = CCC*

Target: protein-protein interaction between Kras and SOS1 (biotin-tagged human Kras loaded with GDP, His-tagged human SOS1) (Homo sapiens (Human), UniProt P01116, G12D)
Assay: Protein-protein interaction inhibition between Kras and SOS1 (KrasG12D-SOS PPI) using AlphaScreen;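 further: kras produced in E. coli, Ni-coupled donor beads and streptavidin acceptor beads, excitation 680 nm with emission detected at 520–620 nm via singlet oxygen transfer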
Format: biochemical
Conditions: AlphaScreen; biotin-tagged human Kras loaded with GDP, His-tagged human SOS1; read-out: KRAS G12D-SOS PPI IC50

SMILES	IC50 [nM]
CC[C@H](C)[C@@H]1NC(=O)[C@H](C(C)C)N(C)C(=O)C[C@@H](CC(C)C)NC(=O)[C@H](CC(C)C)N(C)C(=O)C2(CCCC2)NC(=O)[C@H](CC(C)C)N(C)C(=O)[C@H](CCc2ccc(C(F)(F)F)cc2)NC(=O)CN(C)C(=O)[C@H](Cc2ccc(Cl)cc2)N(C)C(=O)CN(C)C(=O)CN(C)C1=O [Compound 113] (cyclo([Ac5c][NMeL][d(β3hL)][NMeV]I[Sar][Sar][NMePhe(4-Cl)][Sar][hPhe(4-CF3)][NMeL]))	280
CC[C@H](C)[C@@H]1NC(=O)[C@H](CC(C)C)N(C)C(=O)C[C@@H](C(=O)N2CCCCC2)N(C)C(=O)[C@H](C2CCCC2)N(C)C(=O)C2(CCCC2)NC(=O)[C@@H]2CCCN2C(=O)[C@H](CCc2ccc(OC(F)(F)F)c(F)c2)NC(=O)CN(C)C(=O)[C@H](CC2CCCCC2)N(C)C(=O)[C@@H]2CCN2C(=O)[C@H](C)N(C)C1=O [Compound 2067] ([NMeL]I[NMeA][Aze][NMeCha][Sar][X21]P[Ac5c][NMeGly(cPent)][NMeD]-Piperidide; lactam N-11 (inferred); C-terminus assumed)	0.84
CCC[C@H]1C(=O)NC2(CCCC2)C(=O)N(C)[C@@H](C2CCCCC2)C(=O)N(C)[C@H](C(=O)N2CCCCC2)CC(=O)N(C)[C@@H](CC(C)C)C(=O)N[C@@H]([C@@H](C)CC)C(=O)N(C)CC(=O)N(C)CC(=O)N(C)[C@@H](CC2CCCCC2)C(=O)N(C)CC(=O)N[C@@H](CCc2ccc(C(F)(F)F)c(Cl)c2)C(=O)N1C [Compound 1005] ([NMeL]I[Sar][Sar][NMeCha][Sar][hPhe(3-Cl-4-CF3)][NMeNva][Ac5c][NMeChg][NMeD]-Piperidide; lactam N-11)	3.5
CC[C@H](C)[C@@H]1NC(=O)[C@H](CC(C)C)N(C)C(=O)C[C@@H](C(=O)N2CCCCC2)N(C)C(=O)[C@H](C(C)C)N(C)C(=O)[C@H](C(C)C)NC(=O)[C@H](CC(=O)N2CCC(F)(F)CC2)N(C)C(=O)[C@H](CCc2ccc(C(F)(F)F)c(Cl)c2)NC(=O)CN(C)C(=O)[C@H](CC2CCCCC2)N(C)C(=O)CN(C)C(=O)CN(C)C1=O [Compound 1078] ([NMeL]I[Sar][Sar][NMeCha][Sar][hPhe(3-Cl-4-CF3)][NMeD](N(CH2CH2)2CF2)V[NMeV][NMeD]-Piperidide; lactam N-11)	190
CC[C@H](C)[C@@H]1NC(=O)[C@H](C)N(C)C(=O)C[C@@H](C)NC(=O)[C@H](CC(C)C)N(C)C(=O)[C@H](Cc2ccccc2)N(C)C(=O)[C@H](CC(C)C)NC(=O)[C@H](Cc2cccc(I)c2)NC(=O)CN(C)C(=O)[C@H](Cc2ccc(Cl)cc2)N(C)C(=O)CN(C)C(=O)CN(C)C1=O [Compound 65] (cyclo(I[Sar][Sar][NMePhe(4-Cl)][Sar][Phe(3-I)]L[NMeF][NMeL][d(β3hA)][NMeA]))	240
C#CC[C@H]1C(=O)N[C@@H]([C@@H](C)CC)C(=O)N(C)[C@@H](C)C(=O)N2CC[C@H]2C(=O)N(C)[C@@H](CC2CCCCC2)C(=O)N(C)CC(=O)N[C@@H](CCc2ccc(C(F)(F)F)c(Cl)c2)C(=O)N2CCC[C@H]2C(=O)NC2(CCCC2)C(=O)N(C)[C@@H](C(C)C)C(=O)N(C)[C@H](C(=O)N2CCCCC2)CC(=O)N1C [Compound 559] ([NMePra]I[NMeA][Aze][NMeCha][Sar][hPhe(3-Cl-4-CF3)]P[Ac5c][NMeV][NMeD]-Piperidide; lactam N-11)	1.7
CC(C)C[C@H]1C(=O)N[C@@H](C2CCCCC2)C(=O)N(C)[C@@H](C)C(=O)N2CC[C@H]2C(=O)N(C)[C@@H](CC2CCCCC2)C(=O)N(C)CC(=O)N[C@@H](CCc2ccc(C(F)(F)F)c(Cl)c2)C(=O)N2CCC[C@H]2C(=O)NC2(CCCC2)C(=O)N(C)[C@@H](C(C)C)C(=O)N(C)[C@H](C(=O)N2CCCCC2)CC(=O)N1C [Compound 642] ([NMeL][Chg][NMeA][Aze][NMeCha][Sar][hPhe(3-Cl-4-CF3)]P[Ac5c][NMeV][NMeD]-Piperidide; lactam N-11)	54
CCCOC[C@H]1C(=O)N(C)CC(=O)N[C@@H](CCc2ccc(C(F)(F)F)c(F)c2)C(=O)N2CCC[C@H]2C(=O)NC2(CCCC2)C(=O)N(C)[C@@H]([C@@H](C)CC)C(=O)N(C)[C@H](C(=O)N2CCOCC2)CC(=O)N(C)[C@@H](CC(C)C)C(=O)N[C@@H]([C@@H](C)CC)C(=O)N(C)[C@@H](C)C(=O)N2CC[C@H]2C(=O)N1C [Compound 827] ([NMeL]I[NMeA][Aze][NMeS](Propyl)[Sar][hPhe(3-F,4-CF3)]P[Ac5c][NMeI][NMeD]-Morpholide; lactam N-11)	2.8
CCCCN1CC(=O)N(C)[C@@H](Cc2ccc(Cl)cc2)C(=O)N(C)CC(=O)N[C@@H](CCc2ccc(C(F)(F)F)cc2)C(=O)N(C)[C@@H](CC(C)C)C(=O)NC(C)(C)C(=O)N(C)[C@@H](CC(C)C)C(=O)N[C@H](C)CC(=O)N(C)[C@@H](C)C(=O)N[C@@H]([C@@H](C)CC)C(=O)N(C)CC1=O [Compound 602] (cyclo([Aib][NMeL][d(β3hA)][NMeA]I[Sar][NBuGly][NMePhe(4-Cl)][Sar][hPhe(4-CF3)][NMeL]))	280
CC[C@H](C)[C@@H]1NC(=O)[C@H](CC(C)C)N(C)C(=O)C[C@@H](C(=O)N(C)C)N(C)C(=O)[C@H]([C@@H](C)CC)N(C)C(=O)CNC(=O)[C@@H]2CCCN2C(=O)[C@H](CCc2ccc(C(F)(F)F)c(Cl)c2)NC(=O)CN(C)C(=O)[C@H](Cc2ccc(C)cc2)N(C)C(=O)[C@@H]2CCN2C(=O)[C@H](C)N(C)C1=O [Compound 828] ([NMeL]I[NMeA][Aze][NMePhe(4-Me)][Sar][hPhe(3-Cl-4-CF3)]PG[NMeI][NMeD]-NMe2; lactam N-11)	40
CC[C@H](C)[C@@H]1NC(=O)[C@H](CC(C)C)N(C)C(=O)C[C@@H](C)NC(=O)[C@H](C(C)C)N(C)C(=O)C2(CCCC2)NC(=O)[C@@H]2CCCN2C(=O)[C@H](CCc2ccc(C(F)(F)F)c(Cl)c2)NC(=O)CN(C)C(=O)[C@H](Cc2ccc(Cl)cc2)N(C)C(=O)[C@@H]2CCN2C(=O)[C@H](C)N(C)C1=O [Compound 1018] (cyclo([Ac5c][NMeV][d(β3hA)][NMeL]I[NMeA][Aze][NMePhe(4-Cl)][Sar][hPhe(3-Cl-4-CF3)]P))	11
CC[C@H](C)[C@@H]1NC(=O)[C@H](CC(C)C)N(C)C(=O)C[C@@H](C(=O)N2CCCCC2)N(C)C(=O)[C@H](C(C)C)N(C)C(=O)C2(CCCC2)NC(=O)[C@@H]2CCCN2C(=O)[C@H](CCc2ccc(C(F)(F)F)c(Cl)c2)NC(=O)CN(C)C(=O)[C@H](CC2CCCCC2)N(C)C(=O)[C@@H]2CCN2C(=O)[C@H](C)N(C)C1=O [Compound 476] ([NMeL]I[NMeA][Aze][NMeCha][Sar][hPhe(3-Cl-4-CF3)]P[Ac5c][NMeV][NMeD]-Piperidide; lactam N-11)	4.1
CC[C@H](C)[C@@H]1NC(=O)[C@H](C)N(C)C(=O)C[C@@H](C(=O)N2CCCCC2)N(C)C(=O)[C@H](C(C)C)N(C)C(=O)C2(CCCC2)NC(=O)[C@@H]2CCCN2C(=O)[C@H](CCc2cccc(F)c2)NC(=O)CN(C)C(=O)[C@H](CC2CCCCC2)N(C)C(=O)[C@@H]2CCN2C(=O)[C@H](C)N(C)C1=O [Compound 685] ([NMeA]I[NMeA][Aze][NMeCha][Sar][X116]P[Ac5c][NMeV][NMeD]-Piperidide; lactam N-11)	130
